Source: PMC12028158, “Synthesis and In Vitro Evaluation of the Anticancer Effect of Novel Phosphonium Vindoline Derivatives” (International Journal of Molecular Sciences, 2025)
Read-outs that look alike come from different tables or passages of the source.

Columns and labels:
Format in all cases: cell-based
HS 578T = assay: NCI60 one-dose screen; settings: Homo sapiens; HS 578T, 10 μM, one-dose; read-out: Growth percent
UACC-62 = assay: NCI60 five-dose screen; settings: Homo sapiens, UACC-62, Melanoma, read-out: GI50
UACC-257 = assay: NCI60 five-dose screen; settings: Homo sapiens, UACC-257, UACC-257, Melanoma, read-out: GI50
SK-OV-3 = assay: NCI60 five-dose screen; settings: Homo sapiens, SK-OV-3, Ovarian Cancer, read-out: GI50
MALME-3M = assay: NCI60 one-dose screen; settings: Homo sapiens; MALME-3M, 10 μM, one-dose; read-out: Growth percent
SF-295 = assay: NCI60 five-dose screen; settings: Homo sapiens, SF-295, CNS Cancer, read-out: GI50
HCT-116 [1] = assay: NCI60 five-dose screen; settings: Homo sapiens, HCT-116, Colon Cancer, read-out: GI50
K-562 = assay: NCI60 five-dose screen; settings: Homo sapiens, K562, K-562, Leukemia, read-out: GI50
IGROV1 = assay: NCI60 one-dose screen; settings: Homo sapiens, IGROV-1; IGROV1, 10 μM, one-dose; read-out: Growth percent
A498 [2] = assay: NCI60 five-dose screen; settings: Homo sapiens, A498, Renal Cancer, read-out: GI50
LOX IMVI = assay: NCI60 five-dose screen; settings: Homo sapiens, Melanoma, read-out: GI50
T-47D = assay: NCI60 one-dose screen; settings: Homo sapiens, T47D; T-47D, 10 μM, one-dose; read-out: Growth percent
HOP-62 = assay: NCI60 five-dose screen; settings: Homo sapiens, HOP-62, Non-small Cell Lung Cancer, read-out: GI50
HCT-116 [3] = assay: NCI60 one-dose screen; settings: Homo sapiens; HCT-116, 10 μM, one-dose; read-out: Growth percent
[4] = system: 60 human tumor cell lines (NCI60); assay: NCI60 one-dose screen, overall mean; settings: one-dose; for activity at 10 µM: Homo sapiens, mean over 60 cell lines, read-out: Mean growth percent
Prostate Cancer panel = assay: NCI60 five-dose screen, panel mean; settings: Homo sapiens, mean over Prostate Cancer panel
SW-620 [5] = assay: NCI60 five-dose screen; settings: Homo sapiens, SW-620, Colon Cancer, read-out: GI50
KM12 = assay: NCI60 five-dose screen; settings: Homo sapiens, KM12, KM12, Colon Cancer, read-out: GI50
COLO 205 = assay: NCI60 five-dose screen; settings: Homo sapiens, COLO 205, COLO 205, Colon Cancer, read-out: GI50
OVCAR-4 = assay: NCI60 one-dose screen; settings: Homo sapiens; OVCAR-4, 10 μM, one-dose; read-out: Growth percent
SK-MEL-28 = assay: NCI60 one-dose screen; settings: Homo sapiens; SK-MEL-28, 10 μM, one-dose; read-out: Growth percent
NCI-H322M = assay: NCI60 five-dose screen; settings: Homo sapiens, Non-small Cell Lung Cancer, read-out: GI50
OVCAR-5 = assay: NCI60 one-dose screen; settings: Homo sapiens; OVCAR-5, 10 μM, one-dose; read-out: Growth percent
NCI-H522 = assay: NCI60 five-dose screen; settings: Homo sapiens, NCI-H522, Non-small Cell Lung Cancer, read-out: GI50
SW-620 [6] = assay: NCI60 one-dose screen; settings: Homo sapiens; SW-620, 10 μM, one-dose; read-out: Growth percent
M14 = assay: NCI60 one-dose screen; settings: Homo sapiens; M14, 10 μM, one-dose; read-out: Growth percent
SF-539 = assay: NCI60 one-dose screen; settings: Homo sapiens; SF-539, 10 μM, one-dose; read-out: Growth percent
HT29 = assay: NCI60 one-dose screen; settings: Homo sapiens, HT-29; HT29, 10 μM, one-dose; read-out: Growth percent
RPMI-8226 = assay: NCI60 one-dose screen; settings: Homo sapiens; RPMI-8226, 10 μM, one-dose; read-out: Growth percent
SNB-75 = assay: NCI60 one-dose screen; settings: Homo sapiens; SNB-75, 10 μM, one-dose; read-out: Growth percent
CCRF-CEM = assay: NCI60 one-dose screen; settings: Homo sapiens, 10 μM, one-dose, read-out: Growth percent
MDA-MB-468 = assay: NCI60 five-dose screen; settings: Homo sapiens, MDA-MB-468, MDA-MB-468, Breast Cancer, read-out: GI50
NCI/ADR-RES = assay: NCI60 one-dose screen; settings: Homo sapiens, 10 μM, one-dose, read-out: Growth percent
SK-MEL-5 = assay: NCI60 one-dose screen; settings: Homo sapiens; SK-MEL-5, 10 μM, one-dose; read-out: Growth percent
HCT-15 = assay: NCI60 one-dose screen; settings: Homo sapiens; HCT-15, 10 μM, one-dose; read-out: Growth percent
A498 [7] = assay: NCI60 one-dose screen; settings: Homo sapiens; A498, 10 μM, one-dose; read-out: Growth percent
MDA-MB-231/ATCC = assay: NCI60 one-dose screen; settings: Homo sapiens; MDA-MB-231/ATCC, 10 μM, one-dose; read-out: Growth percent
SF-268 = assay: NCI60 one-dose screen; settings: Homo sapiens; SF-268, 10 μM, one-dose; read-out: Growth percent
HCC-2998 = assay: NCI60 one-dose screen; settings: Homo sapiens; HCC-2998, 10 μM, one-dose; read-out: Growth percent
OVCAR-3 = assay: NCI60 five-dose screen; settings: Homo sapiens, OVCAR-3, Ovarian Cancer, read-out: GI50
UO-31 = assay: NCI60 one-dose screen; settings: Homo sapiens; UO-31, 10 μM, one-dose; read-out: Growth percent
DU-145 = assay: NCI60 five-dose screen; settings: Homo sapiens, DU-145, Prostate Cancer, read-out: GI50
NCI-H460 = assay: NCI60 five-dose screen; settings: Homo sapiens, NCI-H460, Non-small Cell Lung Cancer, read-out: GI50
NCI-H23 = assay: NCI60 five-dose screen; settings: Homo sapiens, NCI-H23, Non-small Cell Lung Cancer, read-out: GI50
SR = assay: NCI60 one-dose screen; settings: Homo sapiens, 10 μM, one-dose, read-out: Growth percent

CC[C@]12C=CCN3CC[C@@]4(c5ccc(OC)cc5N(C)[C@H]4[C@@](O)(C(=O)OC)[C@@H]1OC(=O)CCC[P+](c1ccc(OC)cc1)(c1ccc(OC)cc1)c1ccc(OC)cc1)[C@@H]32 [9b]
activity at 10 µM (HS 578T): -65.4%
GI50 (UACC-62; five-dose): 603 nM
GI50 (UACC-257; five-dose): 646 nM
GI50 (SK-OV-3; five-dose): 1020 nM
activity at 10 µM (MALME-3M): -97.8%
GI50 (SF-295; five-dose): 1920 nM
GI50 (HCT-116 [1]; five-dose): 712 nM
GI50 (K-562; five-dose): 556 nM
activity at 10 µM (IGROV1): -92.1%
GI50 (A498 [2]; five-dose): 2340 nM
GI50 (LOX IMVI; five-dose): 614 nM
activity at 10 µM (T-47D): -61.4%
GI50 (HOP-62; five-dose): 1660 nM
activity at 10 µM (HCT-116 [3]): -68.8%
activity at 10 µM [4]: -76.2%
average reduction / average cell death ([4]; 10 µM, average over cell lines): more than 70%
GI50 (Prostate Cancer panel; read-out: Mean GI50): 710 nM
GI50 (SW-620 [5]; five-dose): 844 nM
GI50 (KM12; five-dose): 628 nM
GI50 (COLO 205; five-dose): 194 nM
activity at 10 µM (OVCAR-4): -75.3%
activity at 10 µM (SK-MEL-28): -96.3%
GI50 (NCI-H322M; five-dose): 2860 nM
activity at 10 µM (OVCAR-5): -96.5%
GI50 (NCI-H522; five-dose): 391 nM
activity at 10 µM (SW-620 [6]): -82.4%
activity at 10 µM (M14): -88.4%
activity at 10 µM (SF-539): -98.9%
activity at 10 µM (HT29): -84.3%
activity at 10 µM (RPMI-8226): -45.5%
activity at 10 µM (SNB-75): -34%
activity at 10 µM (CCRF-CEM): -71.2%
GI50 (MDA-MB-468; five-dose): 241 nM
activity at 10 µM (NCI/ADR-RES): 79.9%
activity at 10 µM (SK-MEL-5): -99.6%
activity at 10 µM (HCT-15): -86.3%
activity at 10 µM (A498 [7]): -83.2%
activity at 10 µM (MDA-MB-231/ATCC): -97%
activity at 10 µM (SF-268): -34.3%
activity at 10 µM (HCC-2998): -89.7%
GI50 (OVCAR-3; five-dose): 624 nM
activity at 10 µM (UO-31): -56.8%
GI50 (DU-145; five-dose): 955 nM
GI50 (NCI-H460; five-dose): 666 nM
GI50 (NCI-H23; five-dose): 671 nM
activity at 10 µM (SR): 15%

CCC12C=CCN3CCC4(c5ccc(OC)cc5N(C)C4C(O)(C(=O)OC)C1OC(=O)c1ccc(C[P+](c4ccccc4)(c4ccccc4)c4ccccc4)cc1)C32 (stereo not shown) [compound 12]
activity at 10 µM (HS 578T): -36.6%
GI50 (UACC-62): 1030 nM
GI50 (UACC-257): 918 nM
GI50 (SK-OV-3): 2700 nM
activity at 10 µM (MALME-3M): -95.5%
GI50 (SF-295): 2920 nM
GI50 (HCT-116 [1]): 1590 nM
GI50 (K-562): 448 nM
activity at 10 µM (IGROV1): -69.6%
GI50 (A498 [2]): 16400 nM
GI50 (LOX IMVI): 1820 nM
activity at 10 µM (T-47D): 7.1%
GI50 (HOP-62): 2670 nM
activity at 10 µM (HCT-116 [3]): -62.8%
activity at 10 µM [4]: -37.1%
cytotoxicity (in words) ([4]; 10 µM): moderate cytotoxicity
GI50 (Prostate Cancer panel; read-out: GI50 Mean): 1130 nM
GI50 (SW-620 [5]): 1500 nM
GI50 (KM12): 514 nM
GI50 (COLO 205): 313 nM
activity at 10 µM (OVCAR-4): 7.65%
activity at 10 µM (SK-MEL-28): -92.4%
GI50 (NCI-H322M): 4760 nM
activity at 10 µM (OVCAR-5): 2.52%
GI50 (NCI-H522): 491 nM
activity at 10 µM (SW-620 [6]): -66%
activity at 10 µM (M14): -73.9%
activity at 10 µM (SF-539): -90.6%
activity at 10 µM (HT29): -39.4%
activity at 10 µM (RPMI-8226): -50.8%
activity at 10 µM (SNB-75): -61.7%
activity at 10 µM (CCRF-CEM): -46.4%
GI50 (MDA-MB-468): 186 nM
activity at 10 µM (SK-MEL-5): -98.5%
activity at 10 µM (HCT-15): 90.1%
activity at 10 µM (A498 [7]): 70.2%
activity at 10 µM (MDA-MB-231/ATCC): -91.5%
activity at 10 µM (SF-268): -26.1%
activity at 10 µM (HCC-2998): -74.6%
GI50 (OVCAR-3): 704 nM
activity at 10 µM (UO-31): 88.3%
GI50 (DU-145): 1610 nM
GI50 (NCI-H460): 1660 nM
GI50 (NCI-H23): 2810 nM
activity at 10 µM (SR): -58.3%
